Assay [1] concerns the target Vascular endothelial growth factor receptor 1 (Homo sapiens) (UniProt P17948). The experiment in a line: Inhibition of human recombinant FLT1 at 15 nM related to control ULK1.
Assay [2] deals with Serine/threonine-protein kinase tousled-like 2 (Homo sapiens) (UniProt Q86UE8). The experiment in a line: Inhibition of human recombinant TLK2 at 15 nM in presence of ATP by radiometric assay relative to control.
Assay [3] addresses Dual specificity protein kinase CLK4 (Homo sapiens) (UniProt Q9HAZ1). Kind of assay: Inhibition of human recombinant CLK4 at 15 nM related to control ULK1.
Assay [4] deals with T1, Inhibitor of nuclear factor kappa-B kinase subunit beta (Homo sapiens) (UniProt O14920).
T1 sequence (whole entry): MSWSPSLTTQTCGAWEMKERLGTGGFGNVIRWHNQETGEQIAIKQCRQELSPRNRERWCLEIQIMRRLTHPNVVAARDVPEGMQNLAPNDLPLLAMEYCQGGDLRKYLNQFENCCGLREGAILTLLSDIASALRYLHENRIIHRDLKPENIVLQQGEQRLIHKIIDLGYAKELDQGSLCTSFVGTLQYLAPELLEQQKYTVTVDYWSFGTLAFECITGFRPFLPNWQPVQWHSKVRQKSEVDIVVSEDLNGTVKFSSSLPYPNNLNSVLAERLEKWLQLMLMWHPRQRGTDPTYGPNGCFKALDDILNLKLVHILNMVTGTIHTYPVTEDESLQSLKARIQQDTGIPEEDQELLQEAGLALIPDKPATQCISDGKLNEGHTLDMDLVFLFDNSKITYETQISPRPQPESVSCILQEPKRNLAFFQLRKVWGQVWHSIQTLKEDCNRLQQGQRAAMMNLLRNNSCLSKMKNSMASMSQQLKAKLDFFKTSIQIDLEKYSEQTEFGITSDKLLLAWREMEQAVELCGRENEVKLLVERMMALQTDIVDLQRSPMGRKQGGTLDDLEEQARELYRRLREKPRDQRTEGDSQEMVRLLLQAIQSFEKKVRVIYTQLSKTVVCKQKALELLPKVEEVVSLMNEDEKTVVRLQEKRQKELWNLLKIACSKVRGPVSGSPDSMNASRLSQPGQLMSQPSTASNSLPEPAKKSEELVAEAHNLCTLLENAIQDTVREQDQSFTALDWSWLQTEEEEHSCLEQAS
The experiment in a line: Inhibition of human recombinant IKKb at 15 nM related to control ULK1.

Assay [5] addresses T2, Mitogen-activated protein kinase kinase kinase 5 (Homo sapiens) (UniProt Q99683).
T2 sequence (whole entry): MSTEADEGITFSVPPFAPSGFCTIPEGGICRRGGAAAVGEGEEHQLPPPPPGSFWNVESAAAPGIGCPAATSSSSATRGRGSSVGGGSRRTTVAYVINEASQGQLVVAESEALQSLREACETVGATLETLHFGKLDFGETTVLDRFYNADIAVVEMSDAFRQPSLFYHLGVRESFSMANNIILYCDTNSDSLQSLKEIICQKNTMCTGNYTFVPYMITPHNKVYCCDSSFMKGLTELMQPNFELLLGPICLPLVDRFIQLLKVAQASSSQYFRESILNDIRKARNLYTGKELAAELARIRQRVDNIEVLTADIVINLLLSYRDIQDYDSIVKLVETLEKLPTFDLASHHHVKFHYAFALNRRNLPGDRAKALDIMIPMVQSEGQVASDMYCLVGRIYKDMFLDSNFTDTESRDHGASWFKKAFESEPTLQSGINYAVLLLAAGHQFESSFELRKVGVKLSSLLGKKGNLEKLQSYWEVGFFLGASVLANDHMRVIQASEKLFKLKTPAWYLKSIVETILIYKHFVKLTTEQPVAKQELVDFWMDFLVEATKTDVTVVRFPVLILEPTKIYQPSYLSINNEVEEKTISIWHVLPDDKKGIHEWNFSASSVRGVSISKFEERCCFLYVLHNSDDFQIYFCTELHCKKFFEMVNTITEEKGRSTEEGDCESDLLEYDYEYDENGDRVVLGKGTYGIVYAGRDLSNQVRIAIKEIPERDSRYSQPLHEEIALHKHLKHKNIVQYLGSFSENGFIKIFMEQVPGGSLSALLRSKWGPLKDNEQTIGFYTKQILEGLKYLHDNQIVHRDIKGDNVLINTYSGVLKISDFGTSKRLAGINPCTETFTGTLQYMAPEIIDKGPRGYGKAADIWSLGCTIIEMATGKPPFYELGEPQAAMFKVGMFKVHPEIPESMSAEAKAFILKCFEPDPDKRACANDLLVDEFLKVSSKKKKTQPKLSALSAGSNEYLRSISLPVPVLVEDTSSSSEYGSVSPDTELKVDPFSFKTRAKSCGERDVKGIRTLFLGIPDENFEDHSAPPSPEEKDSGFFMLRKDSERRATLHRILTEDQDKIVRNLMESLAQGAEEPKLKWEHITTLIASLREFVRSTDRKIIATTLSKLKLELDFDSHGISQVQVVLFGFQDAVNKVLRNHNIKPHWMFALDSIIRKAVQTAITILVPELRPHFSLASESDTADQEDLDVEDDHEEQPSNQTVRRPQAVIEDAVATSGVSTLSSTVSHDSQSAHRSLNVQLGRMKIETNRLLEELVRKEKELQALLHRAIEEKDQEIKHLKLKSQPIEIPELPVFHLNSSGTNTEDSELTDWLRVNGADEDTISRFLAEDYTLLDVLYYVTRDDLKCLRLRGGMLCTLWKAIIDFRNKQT
The experiment in a line: Inhibition of human recombinant MAP3K5 at 15 nM in presence of ATP by radiometric assay relative to control.

Assay [6] addresses T3, Dual specificity mitogen-activated protein kinase kinase 6 (Homo sapiens) (UniProt P52564).
T3 sequence (whole entry): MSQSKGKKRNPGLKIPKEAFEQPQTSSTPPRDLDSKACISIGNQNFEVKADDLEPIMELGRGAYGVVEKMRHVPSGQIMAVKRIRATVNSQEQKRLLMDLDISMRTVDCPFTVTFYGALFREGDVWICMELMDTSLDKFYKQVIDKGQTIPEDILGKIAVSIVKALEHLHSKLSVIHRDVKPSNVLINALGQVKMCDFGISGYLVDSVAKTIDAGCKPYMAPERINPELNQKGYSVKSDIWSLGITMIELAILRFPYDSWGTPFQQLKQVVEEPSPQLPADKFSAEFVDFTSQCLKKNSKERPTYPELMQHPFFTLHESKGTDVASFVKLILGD
Kind of assay: Inhibition of human recombinant MAP2K6 at 15 nM in presence of ATP by radiometric assay relative to control.

Assay [7] deals with Calcium/calmodulin-dependent protein kinase type II subunit beta (Homo sapiens) (UniProt Q13554). The experiment in a line: Inhibition of human recombinant CaMK2b at 40 nM in presence of ATP by radiometric assay relative to control.
Calcium/calmodulin-dependent protein kinase type II subunit beta (Homo sapiens), sequence (Q13554 whole entry): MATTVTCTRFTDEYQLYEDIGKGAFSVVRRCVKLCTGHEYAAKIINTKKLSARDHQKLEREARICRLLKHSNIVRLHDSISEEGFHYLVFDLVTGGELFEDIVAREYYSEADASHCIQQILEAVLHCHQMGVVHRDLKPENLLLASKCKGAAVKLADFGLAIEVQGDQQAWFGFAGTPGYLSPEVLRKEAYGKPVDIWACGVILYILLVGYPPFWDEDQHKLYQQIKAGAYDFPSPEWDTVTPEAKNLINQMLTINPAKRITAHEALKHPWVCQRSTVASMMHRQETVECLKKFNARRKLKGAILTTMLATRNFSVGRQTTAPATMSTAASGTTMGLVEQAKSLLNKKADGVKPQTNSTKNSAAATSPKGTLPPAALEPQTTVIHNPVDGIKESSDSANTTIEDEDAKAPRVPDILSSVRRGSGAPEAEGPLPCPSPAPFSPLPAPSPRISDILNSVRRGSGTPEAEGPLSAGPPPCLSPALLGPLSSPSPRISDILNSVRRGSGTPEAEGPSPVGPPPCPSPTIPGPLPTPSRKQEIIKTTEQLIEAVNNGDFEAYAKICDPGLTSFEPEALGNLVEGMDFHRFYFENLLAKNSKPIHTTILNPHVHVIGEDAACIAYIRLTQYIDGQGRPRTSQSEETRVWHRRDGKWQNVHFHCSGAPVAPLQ

Serine/threonine-protein kinase tousled-like 2 (Homo sapiens), sequence (Q86UE8 whole entry, looked up): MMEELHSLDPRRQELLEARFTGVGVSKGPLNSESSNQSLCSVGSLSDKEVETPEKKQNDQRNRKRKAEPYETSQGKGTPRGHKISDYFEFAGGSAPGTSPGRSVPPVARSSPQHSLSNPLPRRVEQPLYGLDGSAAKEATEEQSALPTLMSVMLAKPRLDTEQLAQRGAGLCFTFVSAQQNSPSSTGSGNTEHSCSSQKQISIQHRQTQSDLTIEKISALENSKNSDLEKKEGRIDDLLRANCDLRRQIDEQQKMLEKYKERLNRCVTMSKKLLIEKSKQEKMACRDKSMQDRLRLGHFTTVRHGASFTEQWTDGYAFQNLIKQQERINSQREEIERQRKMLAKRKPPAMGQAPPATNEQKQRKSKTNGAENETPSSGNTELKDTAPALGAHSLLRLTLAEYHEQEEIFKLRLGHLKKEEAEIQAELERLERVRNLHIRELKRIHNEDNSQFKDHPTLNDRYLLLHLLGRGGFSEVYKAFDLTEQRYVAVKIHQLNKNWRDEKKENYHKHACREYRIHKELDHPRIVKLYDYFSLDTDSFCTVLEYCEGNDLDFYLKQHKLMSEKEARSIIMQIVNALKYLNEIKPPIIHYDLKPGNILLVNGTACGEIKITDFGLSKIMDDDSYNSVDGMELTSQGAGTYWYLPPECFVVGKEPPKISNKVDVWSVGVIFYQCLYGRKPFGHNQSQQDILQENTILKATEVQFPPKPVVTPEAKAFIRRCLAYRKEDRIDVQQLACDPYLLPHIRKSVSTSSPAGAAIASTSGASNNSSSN
Dual specificity protein kinase CLK4 (Homo sapiens), sequence (Q9HAZ1 whole entry, looked up): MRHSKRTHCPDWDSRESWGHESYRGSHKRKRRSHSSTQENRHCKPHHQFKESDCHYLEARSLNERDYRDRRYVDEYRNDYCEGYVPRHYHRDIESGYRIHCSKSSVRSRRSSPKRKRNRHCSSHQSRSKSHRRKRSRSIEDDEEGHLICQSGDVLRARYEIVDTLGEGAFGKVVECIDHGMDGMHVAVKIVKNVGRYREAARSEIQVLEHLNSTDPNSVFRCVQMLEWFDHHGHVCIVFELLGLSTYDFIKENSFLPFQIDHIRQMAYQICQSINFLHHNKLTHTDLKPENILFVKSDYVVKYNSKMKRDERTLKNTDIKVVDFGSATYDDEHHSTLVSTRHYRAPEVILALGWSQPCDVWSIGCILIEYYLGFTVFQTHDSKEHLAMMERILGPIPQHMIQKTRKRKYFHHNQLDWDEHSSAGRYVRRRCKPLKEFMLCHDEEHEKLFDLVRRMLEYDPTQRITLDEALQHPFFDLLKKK
Vascular endothelial growth factor receptor 1 (Homo sapiens), sequence (P17948 whole entry): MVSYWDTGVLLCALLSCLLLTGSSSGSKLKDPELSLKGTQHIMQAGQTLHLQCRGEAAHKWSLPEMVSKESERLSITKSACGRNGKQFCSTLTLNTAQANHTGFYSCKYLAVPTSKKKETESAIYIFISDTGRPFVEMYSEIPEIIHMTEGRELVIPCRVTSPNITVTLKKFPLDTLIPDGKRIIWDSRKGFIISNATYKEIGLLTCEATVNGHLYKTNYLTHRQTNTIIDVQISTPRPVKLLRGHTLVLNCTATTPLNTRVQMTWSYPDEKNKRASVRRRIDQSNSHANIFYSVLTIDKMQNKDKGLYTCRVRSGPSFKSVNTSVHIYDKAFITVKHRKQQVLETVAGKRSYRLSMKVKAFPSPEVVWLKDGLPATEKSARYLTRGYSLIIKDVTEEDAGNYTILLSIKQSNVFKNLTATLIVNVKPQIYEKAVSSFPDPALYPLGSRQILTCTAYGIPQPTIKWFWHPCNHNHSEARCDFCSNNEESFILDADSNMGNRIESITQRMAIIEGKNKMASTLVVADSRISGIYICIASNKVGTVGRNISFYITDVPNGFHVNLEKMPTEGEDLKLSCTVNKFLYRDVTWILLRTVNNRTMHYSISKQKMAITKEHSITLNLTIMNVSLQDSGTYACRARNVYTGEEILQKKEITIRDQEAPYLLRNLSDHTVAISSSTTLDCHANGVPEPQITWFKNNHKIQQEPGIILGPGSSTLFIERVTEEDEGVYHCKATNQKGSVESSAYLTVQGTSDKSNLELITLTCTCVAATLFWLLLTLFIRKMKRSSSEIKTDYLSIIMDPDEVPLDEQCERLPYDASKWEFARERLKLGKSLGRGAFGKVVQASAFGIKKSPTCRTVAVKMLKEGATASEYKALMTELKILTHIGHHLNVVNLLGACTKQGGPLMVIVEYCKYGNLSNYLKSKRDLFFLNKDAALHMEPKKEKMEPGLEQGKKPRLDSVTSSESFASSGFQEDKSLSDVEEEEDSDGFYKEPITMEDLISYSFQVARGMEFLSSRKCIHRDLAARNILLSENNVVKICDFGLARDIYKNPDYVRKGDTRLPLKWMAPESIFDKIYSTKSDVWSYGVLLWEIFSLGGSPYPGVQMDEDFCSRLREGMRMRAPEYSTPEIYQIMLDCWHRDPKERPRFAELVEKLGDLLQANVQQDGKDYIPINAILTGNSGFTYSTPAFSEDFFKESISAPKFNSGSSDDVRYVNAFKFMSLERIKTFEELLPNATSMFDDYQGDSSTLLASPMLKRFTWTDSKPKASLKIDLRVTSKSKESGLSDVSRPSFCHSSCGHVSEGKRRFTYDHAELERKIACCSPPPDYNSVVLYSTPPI

In the case of `CC(C)[C@H](NC(=O)c1cc(-c2cnn3cc(-c4ccc(OCCN5CCCCC5)cc4)cnc23)cs1)C(F)(F)F`, the fold change (FC) in assay [1] was 0.1; in assay [3], 0.94; in assay [4] it was 0. Moreover, the results for the inhibition in assay [2], in assay [5] and in assay [6] were 3%, 0% and 5%, respectively.

Regarding `O=C(N[C@@H](C1CC1)C(F)(F)F)c1cc(-c2cnn3cc(-c4ccc(F)cc4)cnc23)cs1`, the inhibition in assay [7] came to 0%.

A word on the inhibition: it is the relative decrease from the control value, in per cent.

(Values after ChEMBL document CHEMBL5653631, “A Potent and Selective ULK1 Inhibitor Suppresses Autophagy and Sensitizes Cancer Cells to Nutrient Stress” (iScience, 2018).)
